The record followed here is patent US6603044B1, “Phthalamide derivatives, or salt thereof agrohorticultural insecticide, and method for using the same” (Nihon Nohyaku Co., Ltd., priority 1998, dated 2003).

The subject of data set [1] is Diamond Back Moth (Plutella xylostella). Kind of data set: Insecticidal effect on diamond back moth (Test Example 1). The data set is classed as in vivo. Particulars: 50 ppm; Chinese cabbage seedling with deposited eggs immersed about 30 seconds; 25° C.; six days after the immersion. The text has this:
Insecticidal Effect on Diamond Back Moth (Plutella xylostella)
Adult diamondback moths were released and allowed to oviposit on a Chinese cabbage seedling. Two days after the release, the seedling having the eggs deposited thereon was immersed for about 30 seconds in a liquid chemical prepared by diluting a preparation containing each compound listed in Table 1, 2 or 3 as an active ingredient to adjust the concentration to 50 ppm. After air-dryness, it was allowed to stand in a room thermostatted at 25° C. Six days after the immersion, the hatched insects were counted. The mortality was calculated according to the following equation and the insecticidal effect was judged according to the criterion shown below. The test was carried out with triplicate groups of 10 insects.

Data set [2] relates to Smaller tea Tortrix (Adoxophyes sp.). Kind of data set: Insecticidal effect on smaller tea tortrix (Test Example 3). Format: in vivo. To be noted: 50 ppm; tea leaf immersed 30 seconds; larvae; 25° C., humidity 70%; eight days after the inoculation. The protocol: Insecticidal Effect on Smaller tea Tortrix (Adoxophyes sp.)
A leaf of tea tree was immersed for 30 seconds in a liquid chemical containing each compound listed in Table 1, 2 or 3 as an active ingredient to adjust the concentration to 50 ppm. After air-dryness, the leaf was transferred to a plastic dish with a diameter of 9 cm and inoculated with larval smaller tea tortrix. Then, the leaf was allowed to stand in a room thermostatted at 25° C. at a humidity of 70%. Eight days after the inoculation, the dead and alive were counted, and the insecticidal effect was judged according to the same criterion as mentioned in Test Example 1. The test was carried out with triplicate groups of 10 insects.

Consider `CCCN(CCSC)C(=O)c1c(F)cccc1C(=O)Nc1ccc(C(F)(C(F)(F)F)C(F)(F)F)cc1C` [2-3], for which the “Test Example 1 insecticidal effect (mortality)” value in data set [1] is on record as “A (100)”. Also, in data set [2], the “Test Example 3 insecticidal effect (mortality)” value is reported as “A (100)”. Take `CCN(CCS(C)(=O)=O)C(=O)c1c(F)cccc1C(=O)Nc1ccc(C(F)(C(F)(F)F)C(F)(F)F)cc1C` [2-12]: the “Test Example 1 insecticidal effect (mortality)” value in data set [1] is “A (100)”. Further, the “Test Example 3 insecticidal effect (mortality)” value in data set [2] is on record as “A (100)”. `CCN(CCC[S+](C)[O-])C(=O)c1c(F)cccc1C(=O)Nc1ccc(C(F)(C(F)(F)F)C(F)(F)F)cc1C` (stereo not shown) [2-13]: in data set [1], the “Test Example 1 insecticidal effect (mortality)” value is “A (100)”. The “Test Example 3 insecticidal effect (mortality)” value in data set [2] is “A (100)”. `CSCC(C)NC(=O)c1ccccc1C(=O)Nc1ccc(C(F)(C(F)(F)F)C(F)(F)F)cc1C` (stereo not shown) [Compound No. 16]: in data set [1], the “Test Example 1 insecticidal effect (mortality)” value is recorded as “A (100)”. For the same compound, in data set [2], the “Test Example 3 insecticidal effect (mortality)” value was “A (100)”. Turning to `CSCC(C)NC(=O)c1c(I)cccc1C(=O)Nc1ccc(OC(F)(F)F)cc1` (stereo not shown) [compound 8], in data set [1], the “Test Example 1 insecticidal effect (mortality)” value is reported as “A (100)”. Besides, in data set [2], the “Test Example 3 insecticidal effect (mortality)” value is given as “C (89-80)”. Take `CCSCC(C)NC(=O)c1c(I)cccc1C(=O)Nc1ccc(Cl)cc1C` (stereo not shown) [compound 24]: the “Test Example 1 insecticidal effect (mortality)” value in data set [1] is recorded as “A (100)”. In addition, in data set [2], the “Test Example 3 insecticidal effect (mortality)” value was “A (100)”.

For `CSCC(C)NC(=O)c1ccc(Cl)c(Cl)c1C(=O)Nc1ccc(OC(F)(F)F)cc1C` (stereo not shown) [compound 38], the “Test Example 1 insecticidal effect (mortality)” value in data set [1] is on record as “A (100)”. In data set [2], the “Test Example 3 insecticidal effect (mortality)” value is recorded as “A (100)”. `CSCC(C)NC(=O)c1cc(Cl)ccc1C(=O)Nc1ccc(C(F)(F)C(F)(F)F)cc1C` (stereo not shown) [compound 43]: the “Test Example 1 insecticidal effect (mortality)” value in data set [1] is listed as “A (100)”. Also, the “Test Example 3 insecticidal effect (mortality)” value in data set [2] was “A (100)”.

As for `CSCC(C)NC(=O)c1c(C(=O)Nc2ccc(OC(F)(F)F)cc2C)ccc(F)c1F` (stereo not shown) [compound 44], the “Test Example 1 insecticidal effect (mortality)” value in data set [1] is “A (100)”. Further, the “Test Example 3 insecticidal effect (mortality)” value in data set [2] is recorded as “A (100)”. As to `CCC(Oc1ccc(NC(=O)c2cccc(I)c2C(=O)NC(C)CSC)c(C)c1)=C(C(F)(F)F)C(F)(F)F` (stereo not shown) [compound 46], in data set [1], the “Test Example 1 insecticidal effect (mortality)” value is “A (100)”. Further, in data set [2], the “Test Example 3 insecticidal effect (mortality)” value is “A (100)”.

With `CSCCNC(=O)c1c(I)cccc1C(=O)Nc1ccc(C(F)(F)C(F)(F)F)cc1C` [compound 53], in data set [1], the “Test Example 1 insecticidal effect (mortality)” value is “A (100)”. Moreover, the “Test Example 3 insecticidal effect (mortality)” value in data set [2] was “A (100)”. Take `CSCCCNC(=O)c1c(I)cccc1C(=O)Nc1ccc(C(F)(C(F)(F)F)C(F)(F)F)cc1C` [compound 57]: the “Test Example 1 insecticidal effect (mortality)” value in data set [1] was “A (100)”. For the same compound, the “Test Example 3 insecticidal effect (mortality)” value in data set [2] is “A (100)”. Regarding `Cc1cc(C(F)(F)C(F)(F)F)ccc1NC(=O)c1cccc(I)c1C(=O)NCCSC(C)C` [compound 59], in data set [1], the “Test Example 1 insecticidal effect (mortality)” value is on record as “A (100)”. Moreover, the “Test Example 3 insecticidal effect (mortality)” value in data set [2] is “A (100)”. As to `Cc1cc(C(F)(C(F)(F)F)C(F)(F)F)ccc1NC(=O)c1cccc(I)c1C(=O)NCCSC(C)C` [compound 60], the “Test Example 1 insecticidal effect (mortality)” value in data set [1] is given as “A (100)”. Besides, in data set [2], the “Test Example 3 insecticidal effect (mortality)” value was “A (100)”.

Regarding `CCCCSCC(C)NC(=O)c1c(I)cccc1C(=O)Nc1ccc(OC(F)(F)F)cc1C` (stereo not shown) [compound 63], the “Test Example 1 insecticidal effect (mortality)” value in data set [1] is given as “A (100)”. Moreover, in data set [2], the “Test Example 3 insecticidal effect (mortality)” value is on record as “A (100)”. In the case of `CCCCSCC(C)NC(=O)c1c(I)cccc1C(=O)Nc1ccc(C(F)(F)C(F)(F)F)cc1C` (stereo not shown) [compound 64], the “Test Example 1 insecticidal effect (mortality)” value in data set [1] was “A (100)”. Also, in data set [2], the “Test Example 3 insecticidal effect (mortality)” value is listed as “A (100)”. Turning to `CCSCCNC(=O)c1c(I)cccc1C(=O)Nc1ccc(C(F)(F)C(F)(F)F)cc1C` [compound 72], the “Test Example 1 insecticidal effect (mortality)” value in data set [1] is recorded as “A (100)”. Besides, the “Test Example 3 insecticidal effect (mortality)” value in data set [2] is recorded as “A (100)”.

`Cc1cc(OC(F)(F)F)ccc1NC(=O)c1cccc(I)c1C(=O)NC(C)CSC1CCCCC1` (stereo not shown) [compound 82]: in data set [1], the “Test Example 1 insecticidal effect (mortality)” value is on record as “A (100)”. The “Test Example 3 insecticidal effect (mortality)” value in data set [2] is given as “A (100)”. As to `Cc1cc(C(F)(F)C(F)(F)F)ccc1NC(=O)c1cccc(I)c1C(=O)NC(C)CSC1CCCCC1` (stereo not shown) [compound 85], the “Test Example 1 insecticidal effect (mortality)” value in data set [1] is listed as “A (100)”. Besides, the “Test Example 3 insecticidal effect (mortality)” value in data set [2] is reported as “A (100)”. Turning to `CSCC(NC(=O)c1c(I)cccc1C(=O)Nc1ccc(C(F)(C(F)(F)F)C(F)(F)F)cc1C)c1ccccc1` (stereo not shown) [compound 89], the “Test Example 1 insecticidal effect (mortality)” value in data set [1] is “A (100)”. Moreover, the “Test Example 3 insecticidal effect (mortality)” value in data set [2] is given as “A (100)”. `CSCC(NC(=O)c1c(I)cccc1C(=O)Nc1ccc(C(F)(F)C(F)(F)F)cc1C)c1ccccc1` (stereo not shown) [compound 90]: the “Test Example 1 insecticidal effect (mortality)” value in data set [1] is “A (100)”. For the same compound, the “Test Example 3 insecticidal effect (mortality)” value in data set [2] was “A (100)”. On to `CSCC(C)NC(=O)c1c(C(=O)Nc2ccc(C(F)(F)C(F)(F)F)cc2C)cccc1[N+](=O)[O-]` (stereo not shown) [compound 105], for which the “Test Example 1 insecticidal effect (mortality)” value in data set [1] is “A (100)”. The “Test Example 3 insecticidal effect (mortality)” value in data set [2] was “A (100)”. Consider `CSCC(C)NC(=O)c1ccc(I)cc1C(=O)Nc1ccc(C(F)(F)C(F)(F)F)cc1C` (stereo not shown) [compound 111], for which the “Test Example 1 insecticidal effect (mortality)” value in data set [1] was “A (100)”. Further, in data set [2], the “Test Example 3 insecticidal effect (mortality)” value is recorded as “B (99-90)”.

`Cc1cc(C(F)(C(F)(F)F)C(F)(F)F)ccc1NC(=O)c1cccc(I)c1C(=O)NC(C)CSC(C)(C)C` (stereo not shown) [compound 117]: the “Test Example 1 insecticidal effect (mortality)” value in data set [1] is listed as “A (100)”. In data set [2], the “Test Example 3 insecticidal effect (mortality)” value is “A (100)”.

For `Cc1cc(C(F)(C(F)(F)F)C(F)(F)F)ccc1NC(=O)c1cccc(I)c1C(=O)NC(C[S+](C)[O-])c1ccccc1` (stereo not shown) [compound 137], the “Test Example 1 insecticidal effect (mortality)” value in data set [1] is “A (100)”. The “Test Example 3 insecticidal effect (mortality)” value in data set [2] was “A (100)”. Turning to `CSCCCC(C)NC(=O)c1cccc(Cl)c1C(=O)Nc1ccc(C(F)(C(F)(F)F)C(F)(F)F)cc1C` (stereo not shown) [compound 155], in data set [1], the “Test Example 1 insecticidal effect (mortality)” value was “A (100)”. Moreover, the “Test Example 3 insecticidal effect (mortality)” value in data set [2] is “A (100)”. Regarding `CSCCC(C)NC(=O)c1c(I)cccc1C(=O)Nc1ccc(OC(F)(F)F)cc1C` (stereo not shown) [compound 164], the “Test Example 1 insecticidal effect (mortality)” value in data set [1] was “A (100)”. The “Test Example 3 insecticidal effect (mortality)” value in data set [2] is on record as “A (100)”. For `Cc1cc(C(F)(C(F)(F)F)C(F)(F)F)ccc1NC(=O)c1cccc(Cl)c1C(=O)NC(C)(C)CS(C)(=O)=O` [compound 171], the “Test Example 1 insecticidal effect (mortality)” value in data set [1] is “A (100)”. In data set [2], the “Test Example 3 insecticidal effect (mortality)” value is recorded as “A (100)”. Consider `CCS(=O)(=O)CC(C)(C)NC(=O)c1c(I)cccc1C(=O)Nc1ccc(OC(F)(F)F)cc1C` [compound 251], for which, in data set [2], the “Test Example 3 insecticidal effect (mortality)” value is recorded as “A (100)”.

Take `CC(C)(CS(C)(=O)=O)NC(=O)c1c(C(=O)Nc2ccc(OC(F)(F)F)cc2Cl)cccc1[N+](=O)[O-]` [compound 378]: in data set [1], the “Test Example 1 insecticidal effect (mortality)” value was “A (100)”. Still for that read-out and setting: under `Cc1cc(C(F)(C(F)(F)F)C(F)(F)F)ccc1NC(=O)c1ccc(C)c(Cl)c1C(=O)NC(C)CS(C)(=O)=O` (stereo not shown) [compound 379] stands “A (100)”; under `C[S+]([O-])CC(C)(C)NC(=O)c1c(F)cccc1C(=O)Nc1ccc(OC(F)(F)F)cc1Cl` (stereo not shown) [compound 386], “A (100)”; under `CC(C)(CS(C)(=O)=O)NC(=O)c1c(F)cccc1C(=O)Nc1ccc(OC(F)(F)F)cc1Cl` [compound 387], “A (100)”.

Consider `Cc1cc(OC(F)(F)F)ccc1NC(=O)c1cccc([N+](=O)[O-])c1C(=O)NC(C)C[S+](C)[O-]` (stereo not shown) [compound 389], for which the “Test Example 1 insecticidal effect (mortality)” value in data set [1] is reported as “A (100)”.

Turning to `Cc1cc(C(F)(F)F)ccc1NC(=O)c1cccc([N+](=O)[O-])c1C(=O)NC(C)C[S+](C)[O-]` (stereo not shown) [compound 390], in data set [1], the “Test Example 1 insecticidal effect (mortality)” value is given as “A (100)”.

Turning to `Cc1cc(C(F)(F)C(F)(F)F)ccc1NC(=O)c1cccc([N+](=O)[O-])c1C(=O)NC(C)C[S+](C)[O-]` (stereo not shown) [compound 391], the “Test Example 1 insecticidal effect (mortality)” value in data set [1] is listed as “A (100)”. Same read-out and setting: under `Cc1cc(C(F)(C(F)(F)F)C(F)(F)F)ccc1NC(=O)c1cccc(I)c1C(=O)NC1(C[S+](C)[O-])CCCC1` (stereo not shown) [compound 446] stands “A (100)”; under `Cc1cc(C(F)(C(F)(F)F)C(F)(F)F)ccc1NC(=O)c1cccc(I)c1C(=O)NC1(CS(C)(=O)=O)CCCC1` [compound 447], “A (100)”. Same read-out and setting: the result for `CSCCC(CO)NC(=O)c1c(I)cccc1C(=O)Nc1ccc(C(F)(C(F)(F)F)C(F)(F)F)cc1C` (stereo not shown) [compound 452] reads “A (100)”; that for `CC(C)CC(C)c1cc(C(F)(C(F)(F)F)C(F)(F)F)ccc1NC(=O)c1cccc(I)c1C(=O)NC(C)(C)C[S+](C)[O-]` (stereo not shown) [compound 465], “A (100)”. For the compound `CSCC(C)(C)NC(=O)c1c(I)cccc1C(=O)Nc1ccc(C(=O)c2ccc(Cl)cc2)cc1C` [compound 469], the “Test Example 1 insecticidal effect (mortality)” value in data set [1] is reported as “A (100)”. On the same count and under the same terms, the result for `CCN(CC)S(=O)(=O)c1ccc(NC(=O)c2cccc(I)c2C(=O)NC(C)(C)CSC)cc1` [compound 478] reads “A (100)”.
